Measured values from ChEMBL document CHEMBL4619724, “Environment-sensitive fluorescent inhibitors of histone deacetylase” (Bioorg Med Chem Lett, 2020).

Legend:
MOLT-4 [1] = experiment: Induction of apoptosis in human MOLT4 cells assessed as increase in apoptotic cells at 5 uM incubated for 24 hrs by Annexin V and PE staining based flow cytometric analysis relative to control; format: functional
PC-3 = experiment: Antiproliferative activity against human PC3 cells incubated for 24 hrs by CCK8 assay; format: functional, cell-based; settings: PC-3, 24 h
MOLT-4 [2] = experiment: Antiproliferative activity against human MOLT4 cells incubated for 24 hrs by CCK8 assay; format: functional, cell-based; settings: MOLT-4, 24 h
K562 = experiment: Antiproliferative activity against human K562 cells incubated for 24 hrs by CCK8 assay; format: functional, cell-based; settings: K562, 24 h
A549 = experiment: Antiproliferative activity against human A549 cells incubated for 24 hrs by CCK8 assay; format: functional, cell-based; settings: A549, 24 h
Histone deacetylase = experiment: Inhibition of HDAC in human HeLa cell extracts assessed as inhibition of substrate deacetylation using Boc-Lys (acetyl)-AMC as substrate by fluorescence based assay
[3] = Drug uptake in tumor tissue of nude mouse xenografted with human PC3 cells assessed as increase in fluorescence intensity in tumor tissue at 10 uM in presence of HDAC inhibitor, SAHA by fluorescence upright microscopic method; format: ADME, tissue-based, Neoplasm, PC-3; settings: in vivo
[4] = Drug uptake in cytoplasm in human MOLT4 cells overexpressing HDAC at 5 uM incubated for 30 mins by fluorescence microscopic method; format: ADME, subcellular; settings: molt-4, 0.5 h
[5] = Drug uptake in cytoplasm in HEK293 cells harboring low HDAC expression at 5 uM incubated for 30 mins by fluorescence microscopic method; format: ADME, subcellular; settings: human, hek293, 0.5 h
[6] = Drug uptake in nude mouse skin assessed as increase in fluorescence intensity in tissue at 10 uM by fluorescence upright microscopic method; format: ADME, tissue-based, Zone of skin; settings: in vivo
[7] = Drug uptake in cytoplasm in human PC3 cells overexpressing HDAC at 5 uM incubated for 30 mins by fluorescence microscopic method; format: ADME, subcellular; settings: pc-3, 0.5 h
[8] = Drug uptake in nude mouse thigh muscles assessed as increase in fluorescence intensity in tissue at 10 uM by fluorescence upright microscopic method; format: ADME, tissue-based, Thigh muscle; settings: in vivo
[9] = Drug uptake in nucleus in human MOLT4 cells at 5 uM incubated for 30 mins by Hoechst 33342 staining based confocal microscopic method; format: ADME, subcellular; settings: molt-4, 0.5 h
[10] = Drug uptake in human MOLT4 cell membrane at 5 uM incubated for 30 mins by DID staining based confocal microscopic method; format: ADME; settings: molt-4, 0.5 h
[11] = Drug uptake in tumor tissue of nude mouse xenografted with human PC3 cells assessed as increase in fluorescence intensity at 10 uM by fluorescence upright microscopic method; format: ADME, tissue-based, Neoplasm, PC-3; settings: in vivo

Compound | Activity (MOLT-4 [1]) [%] | IC50 (PC-3) [µM] | IC50 (MOLT-4 [2]) [µM] | IC50 (K562) [µM] | IC50 (A549) [µM] | IC50 (Histone deacetylase) [µM] | also measured
CN(C)S(=O)(=O)c1ccc(NCCCCCC(=O)NO)c2nonc12 | 23.3 | 31.2 | 3.55 | 15.2 | > 100 | – | –
CC(C)CC(NC(=O)NCCCCCNc1ccc(S(=O)(=O)N(C)C)c2nonc12)C(=O)NO (configuration not stated) | – | – | – | – | – | > 100 | –
O=C(CCCCCCC(=O)Nc1ccccc1)NO [VORINOSTAT] | 29.58 | – | – | – | – | – | –
CN(C)S(=O)(=O)c1ccc(NCCCCCCC(=O)NO)c2nonc12 | 20.02 | 52.6 | 7.84 | 11 | > 100 | – | Drug uptake [3]: Not Active; Drug uptake [4]: Active; Drug uptake [5]: Not Active; Drug uptake [6]: Not Active; Drug uptake [7]: Active; Drug uptake [8]: Not Active; Drug uptake [9]: Not Active; Drug uptake [10]: 62.1%; Drug uptake [11]: Active
CN(C)S(=O)(=O)c1ccc(NCCCCCNC(=O)NCC(=O)NO)c2nonc12 | – | – | – | – | – | 7.58 | –
